According to paper PMC11484861 (Nature Communications, 2024):
Ends that are not written are not given here.

How the values were obtained:
IFNB1 mRNA expression [1] = format: cell-based, human; conditions: HEK293T, presence vs absence of poly (I:C); P = 0.001 (Fig 6A)
[2] = test system: SARS-CoV-2 M protein level; format: cell-based, human
[3] = test system: phosphorylation of SQSTM1 at T138; format: cell-based, human
[4] = test system: binding of SQSTM1 to TOMM22; format: cell-based, human
PEDV [5] = format: cell-based
IFNB1 mRNA expression [6] = format: cell-based, human
mitophagy = format: cell-based, human
IFNB1 mRNA expression [7] = format: cell-based, human; remark: listed apart in the source
TOMM22 level = format: cell-based, human; conditions: for effects of SQSTM1 on TOMM22 degradation: PDPK1-KO HEK293T, even in the presence of PDPK1, Mdivi-1 2.5 μM, CQ 50 μM, wortmannin 5 μM, 4 h (Fig 2G)
MAVS level = format: cell-based, human
IFNB1 mRNA expression [8] = test system: IFNB1 mRNA expression; set-up: species or system mice; conditions: mouse, in vivo
PEDV [9] = format: cell-based; remark: listed apart in the source
binding of SQSTM1 to M = format: cell-based, human
[10] = biological target: GFP-PDPK1 (human (cloned from HEK293T cells)) (UniProt O15530); experiment: MST
Chain of GFP-PDPK1 (human (cloned from HEK293T cells)) (O15530 whole entry): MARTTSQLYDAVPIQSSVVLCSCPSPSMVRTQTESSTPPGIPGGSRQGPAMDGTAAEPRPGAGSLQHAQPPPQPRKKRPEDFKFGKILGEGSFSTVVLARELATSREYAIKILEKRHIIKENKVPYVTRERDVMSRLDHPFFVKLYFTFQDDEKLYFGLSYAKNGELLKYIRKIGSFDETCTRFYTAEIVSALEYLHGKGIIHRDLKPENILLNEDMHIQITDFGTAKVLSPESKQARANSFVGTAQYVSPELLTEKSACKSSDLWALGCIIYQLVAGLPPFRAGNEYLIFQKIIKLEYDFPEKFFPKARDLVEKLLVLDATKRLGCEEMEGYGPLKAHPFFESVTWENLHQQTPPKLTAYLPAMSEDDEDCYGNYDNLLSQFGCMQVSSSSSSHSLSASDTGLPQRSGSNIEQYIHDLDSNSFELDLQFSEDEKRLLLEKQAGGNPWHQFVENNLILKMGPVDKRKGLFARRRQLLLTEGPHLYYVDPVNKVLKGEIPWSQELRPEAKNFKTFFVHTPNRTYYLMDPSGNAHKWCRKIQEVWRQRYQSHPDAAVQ

GFP-SQSTM1 = GFP-SQSTM1 (Homo sapiens, UniProt Q13501); experiment: biochemical; format: binding

## poly (I:C)
IFNB1 mRNA expression [1]
  IFNB1 mRNA expression: substantially increased

## NCC(=O)Nc1ccc(-n2nc(C(F)(F)F)cc2-c2ccc3c(ccc4ccccc43)c2)cc1 [OSU-03012]
[2]
  M levels: further decreased
[3]
  M/PM-induced phosphorylation of SQSTM1 at T138: inhibited
  phosphorylation of SQSTM1 at T138: blocked
[4]
  binding of SQSTM1 to TOMM22: decreased
PEDV [5]
  PEDV replication / viral titer (TCID50) in cells: attenuated
IFNB1 mRNA expression [6]
  IFNB1 expression during PEDV infection in cells: restored
mitophagy
  decrease in GFP fluorescence of RFP-GFP-Mito caused by SQSTM1 expression: reversed the decrease
  effect of M on the shift in the green signal to a red signal (RFP-GFP-Mito, mitophagy): reversed
IFNB1 mRNA expression [7]
  IFNB1 expression during VSV-M infection in cells: restored
TOMM22 level; Fig 5B
  levels of TOMM22 decreased by PM or M expression: restored
TOMM22 level; SQSTM1-KO cells with SQSTM1 expression, compared with control group (Fig S2J)
  TOMM22 levels: restored
MAVS level
  levels of MAVS decreased by PM or M expression: restored
IFNB1 mRNA expression [8]
  IFNB1 expression in lungs of VSV-M-infected mice: restored
PEDV [9]
  PEDV M protein expression during PEDV infection: reduced
Binding of SQSTM1 to M
  binding of SQSTM1 to M: increased

## COC[C@H]1OC(=O)c2coc3c2[C@@]1(C)C1=C(C3=O)[C@@H]2CCC(=O)[C@@]2(C)C[C@H]1OC(C)=O [wortmannin]
[2]
  effects of SQSTM1 on M degradation: completely abolished
TOMM22 level
  effects of SQSTM1 on TOMM22 degradation: completely abolished

## unlabeled M-β3-5 (MST ligand) (from UniProt P0DTC5 1-222) (domain or fragment)
[10]
  Kd: 71 nM

## CCN(CC)CCCC(C)Nc1ccnc2cc(Cl)ccc12 (stereo not drawn) [CQ, chloroquine]
[2]
  effects of SQSTM1 on M degradation: completely abolished
TOMM22 level
  effects of SQSTM1 on TOMM22 degradation: completely abolished

## SMWSFNPETN [M-CD]
GFP-SQSTM1
  Kd: 115 ± 28 nM

## Mdivi-1
[2]
  effects of SQSTM1 on M degradation: not M degradation
TOMM22 level
  effects of SQSTM1 on TOMM22 degradation: only blocked
